By solubility (thermodynamic) is commonly meant solubility found after equilibrating the solid with the medium. A word on the Papp: it is the rate of passage across a membrane or cell layer, normalised by area and donor concentration. Low readings indicate poor permeation, high ones ready permeation.

Consider three molecules from PMC8300687, “A Fine-Tuned Lipophilicity/Hydrophilicity Ratio Governs Antibacterial Potency and Selectivity of Bifurcated Halogen Bond-Forming NBTIs” (Antibiotics, 2021).

One data set relates to E. coli D22. Briefly: MIC broth microdilution, E. coli D22. In kind it is cell-based. The settings on record: Escherichia coli, D22; mutation in the lpxC gene that increases membrane permeability; read-out: MIC E. coli D22. On the procedure:
(§1) Antimicrobial testing was carried out by the broth microdilution method in 96-well plate format following the Clinical and Laboratory Standards Institute (CLSI) guidelines and European Committee on Antimicrobial Susceptibility Testing (EUCAST) recommendations. Bacterial suspension of specific bacterial strain equivalent to 0.5 McFarland turbidity standard was diluted with cation-adjusted Mueller Hinton broth with TES (Thermo Fisher Diagnostic, Landsmeer, The Netherlands), to obtain a final inoculum of 10^5 CFU/mL. Compounds dissolved in DMSO and inoculum were mixed together and incubated for 18–20 h at 35 °C. Suspensions of Mycobacterium sp. were prepared into a tube of Middelbrook 7H9 broth supplemented with 5% OADC (Thermo Scientific, Trek Diagnostic Systems, West Sussex, UK) and incubated for at least 10 days. After incubation the minimal inhibitory concentration (MIC) values were determined by visual inspection as the lowest dilution of compounds showing no turbidity. Tetracycline was used as a positive control on every assay plate.

Another data set has as its system M. avium. Briefly: MIC, M. avium. In kind it is cell-based. The settings on record: Mycobacterium avium; read-out: MIC M. avium. On the procedure:
as §1

Another data set deals with T1, Human topoisomerase IIα (Homo sapiens, UniProt P11388).
T1 construct: purchased Inspiralis (Norwich, UK)
T1 sequence (P11388 whole entry): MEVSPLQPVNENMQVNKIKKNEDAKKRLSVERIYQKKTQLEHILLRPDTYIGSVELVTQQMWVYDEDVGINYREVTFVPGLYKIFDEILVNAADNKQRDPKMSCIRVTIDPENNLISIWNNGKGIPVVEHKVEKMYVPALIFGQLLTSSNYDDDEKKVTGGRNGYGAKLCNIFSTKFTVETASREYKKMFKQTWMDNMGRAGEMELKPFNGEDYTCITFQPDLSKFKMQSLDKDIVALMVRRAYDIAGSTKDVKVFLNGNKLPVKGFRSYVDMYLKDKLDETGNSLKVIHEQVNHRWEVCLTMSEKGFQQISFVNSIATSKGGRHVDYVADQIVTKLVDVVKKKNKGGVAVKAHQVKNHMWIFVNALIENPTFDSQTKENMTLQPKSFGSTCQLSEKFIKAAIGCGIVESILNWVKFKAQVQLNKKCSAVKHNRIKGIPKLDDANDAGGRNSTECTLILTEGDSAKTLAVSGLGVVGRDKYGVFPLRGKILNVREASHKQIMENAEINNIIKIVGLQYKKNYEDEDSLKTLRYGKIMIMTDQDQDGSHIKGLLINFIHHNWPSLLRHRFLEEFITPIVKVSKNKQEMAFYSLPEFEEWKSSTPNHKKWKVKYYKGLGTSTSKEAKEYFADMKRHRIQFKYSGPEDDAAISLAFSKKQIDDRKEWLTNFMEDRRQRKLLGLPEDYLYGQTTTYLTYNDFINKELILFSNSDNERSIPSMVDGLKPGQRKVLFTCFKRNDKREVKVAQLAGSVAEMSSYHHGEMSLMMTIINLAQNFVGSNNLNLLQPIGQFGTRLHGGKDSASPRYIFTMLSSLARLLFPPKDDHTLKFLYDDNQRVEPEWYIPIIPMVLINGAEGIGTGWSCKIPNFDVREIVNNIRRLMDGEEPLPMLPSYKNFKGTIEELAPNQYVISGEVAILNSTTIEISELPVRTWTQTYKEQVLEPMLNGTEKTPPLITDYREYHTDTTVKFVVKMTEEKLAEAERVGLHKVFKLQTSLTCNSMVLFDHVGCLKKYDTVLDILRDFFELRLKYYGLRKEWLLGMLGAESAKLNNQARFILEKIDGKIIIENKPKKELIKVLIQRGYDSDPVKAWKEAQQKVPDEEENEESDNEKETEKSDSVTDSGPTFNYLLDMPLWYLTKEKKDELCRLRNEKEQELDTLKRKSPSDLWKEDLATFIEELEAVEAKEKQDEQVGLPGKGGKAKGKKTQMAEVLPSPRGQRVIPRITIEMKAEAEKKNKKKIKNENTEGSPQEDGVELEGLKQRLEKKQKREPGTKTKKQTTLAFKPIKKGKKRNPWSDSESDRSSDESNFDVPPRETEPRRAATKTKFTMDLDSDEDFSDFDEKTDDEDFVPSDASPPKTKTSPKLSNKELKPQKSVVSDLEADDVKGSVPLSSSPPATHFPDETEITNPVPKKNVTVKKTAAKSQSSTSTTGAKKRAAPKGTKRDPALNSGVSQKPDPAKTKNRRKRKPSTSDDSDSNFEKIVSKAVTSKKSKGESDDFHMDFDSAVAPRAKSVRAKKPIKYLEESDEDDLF
Briefly: Human topoisomerase II Alpha Relaxation High Throughput Plate assay. In kind it is biochemical. The settings on record: 0.5 h; residual activity of the enzyme at compound concentration 10 μM, mean ± SD; read-out: Human Topo II (% RA). On the procedure:
A Human topoisomerase II Alpha Relaxation High Throughput Plate assay kit, purchased from Inspiralis (Norwich, UK) was used to evaluate the selectivity of compounds for the bacterial enzymes over the homologous human topoisomerase II. […] Biotinylated oligonucleotide in wash buffer was immobilized onto the wells and the excess oligonucleotide was washed off with wash buffer. […] The reactions were stopped by adding the TF buffer (50 mM NaOAc (pH 4.7), 50 mM NaCl, and 50 mM MgCl2) to allow the triplex formation (biotin-oligonucleotide-plasmid) for additional 30 min. Afterward, the unbound plasmid was washed off using TF buffer, and the solution of Promega Diamond dye in T10 buffer (10 mM Tris-HCl (pH 8.0), 1 mM EDTA) was added. […] Screening was performed at inhibitor concentrations of 10 μM. Raw data were converted to mean ± SD percentage of residual activity of the enzyme obtained by two independent measurements.

The test system of another data set is MRSA (QA-11.4). Briefly: MIC broth microdilution, MRSA QA-11.4. The settings on record: Staphylococcus aureus, 20 h, resistant to cefoxitin, read-out: MIC MRSA (QA-11.4). It counts as cell-based, methicillin-resistant S. aureus. On the procedure: as §1
Data set [1] in a line: Equilibrium solubility at pH 6.8. The following applies: phosphate buffered saline, 37 °C, pH 6.8, aqueous buffer, thermodynamic from solid. How it is done: (§2) Prior to the measurements of solubility and permeability isocratic HPLC methods were developed. […] The individual method parameters for each compound are given in the Supplementary Materials Table S1.
The vials were then placed in a homogenizer (Next Advance Bullet Blender, Troy, NY, USA) for 5 min ad speed setting “2” after which they were kept in a thermostated shaker (Tehtnica HeatMix, Domel, Slovenia) at 37 °C and 1200 RPM for 24 h. […] Twenty µL of these solutions were injected for the HPLC analysis by the described methods (Supplementary Materials Table S1). External standards for calibration were made in a mobile phase with 5% acetonitrile in a range of 30–90 mg/L and injected at 20 µL injection volumes.

In data set [2] the test system is S. alachua RDK 030c (QA-1482/04). Briefly: MIC broth microdilution, S. alachua. In kind it is cell-based. The settings on record: Salmonella; read-out: MIC S. alachua RDK 030c (QA-1482/04). On the procedure: as §1
A further data set concerns MRSA (QA-11.7). Briefly: MIC broth microdilution, MRSA QA-11.7. The settings on record: Staphylococcus aureus, 20 h, read-out: MIC MRSA (QA-11.7). It counts as cell-based, methicillin-resistant S. aureus. On the procedure: as §1
For orientation: In broth dilution the organism is exposed to a series of concentrations in liquid medium.

Data set [3] relates to C. jejuni RDK 135 (ATCC 33560). Briefly: MIC broth microdilution, C. jejuni. It counts as cell-based. The following applies: Campylobacter jejuni, ATCC33560; read-out: MIC C. jejuni RDK 135 (ATCC 33560). On the procedure:
as §1

The subject of the next data set is M. smegmatis. The experiment in a line: MIC, M. smegmatis. In kind it is cell-based, Mycobacterium smegmatis. The following applies: Mycolicibacterium smegmatis; read-out: MIC M. smegmatis. How it is done: as §1
For the next data set, the system named is MRSA. Briefly: MIC broth microdilution, MRSA. It counts as cell-based, methicillin-resistant S. aureus. The following applies: Staphylococcus aureus, read-out: MIC MRSA. On the procedure:
as §1

The subject of another data set is E. coli (QA-11.7). The experiment in a line: MIC broth microdilution, E. coli QA-11.7. The following applies: Escherichia coli, 20 h; multi-resistant isolate (ampicillin, azithromycin, cefotaxime, ertapenem, imipenem and others); read-out: MIC E. coli (QA-11.7). In kind it is cell-based. On the procedure:
as §1

Another data set has as its system MRSA (QA-11.6). The experiment in a line: MIC broth microdilution, MRSA QA-11.6. In kind it is cell-based, methicillin-resistant S. aureus. The following applies: Staphylococcus aureus, resistant to cefoxitin, gentamicin, sulfamethoxazole, tetracycline, read-out: MIC MRSA (QA-11.6). On the procedure: as §1
A further data set concerns MRSA (QA-11.2). The experiment in a line: MIC broth microdilution, MRSA QA-11.2. In kind it is cell-based, methicillin-resistant S. aureus. The settings on record: Staphylococcus aureus, 20 h, resistant to cefoxitin, chloramphenicol, clindamycin, linezolid, tetracycline, thiamulin, trimethoprim, read-out: MIC MRSA (QA-11.2). On the procedure:
as §1

The next data set has as its system S. aureus (ATCC 29213). The experiment in a line: MIC broth microdilution, S. aureus ATCC 29213. The following applies: Staphylococcus aureus, ATCC29213. It counts as cell-based. On the procedure: as §1
The next data set relates to S. pneumoniae (QA-10/02). The experiment in a line: MIC broth microdilution, S. pneumoniae. It counts as cell-based. The following applies: Streptococcus pneumoniae. How it is done:
as §1

Another data set is described as follows: in vitro. The following applies: for Papp at 4 h: PAMPA. How it is done:
as §2
A 96-well precoated three-layer PAMPA plates (Corning® Gentest™ Pre-coated PAMPA Plate System, Corning, NY, USA) were used according to the manufacturer’s instructions and as described previously with 300 µL of the donor solutions in the bottom compartment and 200 µL of the acceptor solution (pH 7.4 PBS) in the upper compartment at 37 °C and a 4-h incubation time. The initial and end donor solutions were injected at a 5 µL injection volume. The initial donor solutions were also diluted 100-fold and injected at a 100 µL injection volume to serve as external references for the end acceptor solutions which were injected at the same injection volume. The permeability calculations were made with a manufacturer-provided Excel spreadsheet directly from the measured peak areas accounting for the relevant dilutions and injection volumes.
(In PAMPA a lipid-coated filter parts donor from acceptor wells.)

For a further data set, the system named is E. coli (QA-11.8). Briefly: MIC broth microdilution, E. coli QA-11.8. In kind it is cell-based. The settings on record: Escherichia coli, 20 h; read-out: MIC E. coli (QA-11.8). On the procedure: as §1
Setting [4] is: S. aureus ATCC 29213, read-out: S. aureus MIC (converted).
Where [5] appears, read: read-out: MIC S. aureus (ATCC 29213).

≈ marks a conversion by molar mass, not a printed value. Where two headings read alike, the source gives them in different places.

Regarding `COc1ccc(CNC2CCN(CCc3ccnc4ccc(OC)nc34)CC2)cn1` [Compound 22, 1-(2-(6-Methoxy-1,5-naphthyridin-4-yl)ethyl)-N-((6-methoxypyridin-3-yl)methyl)piperidin-4-amine], the MIC was 4 µg/mL (≈ 9.82 µM) with E. coli D22; more than 128 µg/mL in the data set with M. avium; 2 µg/mL (≈ 4.91 µM) in the data set on MRSA (QA-11.4); 64 µg/mL (≈ 157 µM) in data set [2]; 1 µg/mL (≈ 2.45 µM) in the data set with MRSA (QA-11.7); 2 µg/mL (≈ 4.91 µM) in [3]. Also, the MIC in the data set on M. smegmatis was 16 µg/mL (≈ 39.3 µM); in the data set with MRSA, 1 µg/mL (≈ 2.45 µM); with E. coli (QA-11.7) it was 2 µg/mL (≈ 4.91 µM); in the data set with MRSA (QA-11.6), 2 µg/mL (≈ 4.91 µM); in the data set on MRSA (QA-11.2), 2 µg/mL (≈ 4.91 µM); in the data set with S. aureus (ATCC 29213) (setting [4]), 1.19 µM. In addition, the MIC with S. aureus (ATCC 29213) (setting [5]) stood at 0.5 µg/mL; against S. pneumoniae (QA-10/02) it was 1 µg/mL (≈ 2.45 µM); in the data set on E. coli (QA-11.8) it was 8 µg/mL (≈ 19.6 µM). At Human topoisomerase IIα, the remaining activity at 10 µM was 97 ± 6.94%. The molecule also yielded a solubility (thermodynamic) at 24 h in data set [1] of 1460 µg/mL (≈ 3580 µM). Moreover, the Papp at 4 h in “in vitro” is more than 2.7 ×10⁻⁶ cm/s; in “in vitro” (pH 7.4), 8.2 ×10⁻⁶ cm/s.
Regarding `COc1ccc2nccc(CCN3CCC(NCc4ccc(C(N)=O)cc4)CC3)c2n1` [Compound 17], the MIC with E. coli D22 is 128 µg/mL (≈ 305 µM); in the data set with M. avium it was 128 µg/mL (≈ 305 µM); with MRSA (QA-11.4), 8 µg/mL (≈ 19.1 µM); in [2] it was more than 128 µg/mL; with MRSA (QA-11.7), 4 µg/mL (≈ 9.53 µM); in [3], 128 µg/mL (≈ 305 µM). The MIC with M. smegmatis is 16 µg/mL (≈ 38.1 µM); in the data set on MRSA, 4 µg/mL (≈ 9.53 µM); in the data set on E. coli (QA-11.7), 128 µg/mL (≈ 305 µM); in the data set with MRSA (QA-11.6) it was 4 µg/mL (≈ 9.53 µM); in the data set with MRSA (QA-11.2), 8 µg/mL (≈ 19.1 µM); in the data set on S. aureus (ATCC 29213) (setting [4]), 4.77 µM. Also, the MIC in the data set on S. aureus (ATCC 29213) (setting [5]) was 2 µg/mL; in the data set with S. pneumoniae (QA-10/02) it was 16 µg/mL (≈ 38.1 µM); in the data set with E. coli (QA-11.8), more than 128 µg/mL. The remaining activity at 10 µM on Human topoisomerase IIα was 97.8 ± 2.21%. The molecule further gave a solubility (thermodynamic) at 24 h in data set [1] of 560 µg/mL (≈ 1330 µM). For the same molecule, in “in vitro” (pH 7.4), the Papp at 4 h is 0.31 ×10⁻⁶ cm/s. Further, the “PAMPA permeability classification [low/high]” value in “in vitro” (relative to reference drugs) was “low”.
As for `COc1ccc2nccc(CCN3CCC(NCc4cnn(-c5ccc(F)cc5)c4)CC3)c2n1` [Compound 4, N-((1-(4-Fluorophenyl)-1H-pyrazol-4-yl)methyl)-1-(2-(6-methoxy-1,5-naphthyridin-4-yl)ethyl)piperidin-4-amine], the MIC in the data set with E. coli D22 worked out at 16 µg/mL (≈ 34.7 µM); in the data set with M. avium it was 128 µg/mL (≈ 278 µM); in the data set on MRSA (QA-11.4) it was 8 µg/mL (≈ 17.4 µM); in data set [2] it was 128 µg/mL (≈ 278 µM); with MRSA (QA-11.7), 2 µg/mL (≈ 4.34 µM); in data set [3] it was 128 µg/mL (≈ 278 µM). In addition, the MIC with M. smegmatis is not above 1 µg/mL; in the data set with MRSA, 2 µg/mL (≈ 4.34 µM); in the data set with E. coli (QA-11.7) it was 16 µg/mL (≈ 34.7 µM); with MRSA (QA-11.6), 4 µg/mL (≈ 8.69 µM); in the data set with MRSA (QA-11.2), 8 µg/mL (≈ 17.4 µM); in the data set on S. aureus (ATCC 29213) (setting [4]), 4.34 µM. In addition, the figures for the MIC in the data set with S. aureus (ATCC 29213) (setting [5]), against S. pneumoniae (QA-10/02) and in the data set with E. coli (QA-11.8) were 2 µg/mL, 4 µg/mL (≈ 8.69 µM) and 16 µg/mL (≈ 34.7 µM), respectively. In addition, the remaining activity at 10 µM on Human topoisomerase IIα was determined as 88.41 ± 0.15%. In [1], this molecule yielded a thermodynamic solubility at 24 h of 585 µg/mL (≈ 1270 µM). The Papp at 4 h is more than 2.7 ×10⁻⁶ cm/s in the data set “in vitro” and 14.2 ×10⁻⁶ cm/s in “in vitro” (pH 7.4).
